In brackets after ≈: the same amount, converted by molar mass. Like-named read-outs stand apart in the source and are kept apart here.
Legend:
Saccharomyces cerevisiae [1] = experiment: MIC/MFC broth microdilution (CLSI); assay type: cell-based; settings: Saccharomyces cerevisiae S288c
Procedure: (§1) Antifungal susceptibility was determined by broth microdilution according to the CLSI guidelines described in M27-Ed4 ([16]). […] MFC was determined by back-plating drug-treated cultures from MIC broths onto SDA plates. The MFC was defined as the lowest concentration from which no colonies could be cultured.

Candida albicans [2] = experiment: MIC/MFC broth microdilution (CLSI); assay type: cell-based; settings: Candida albicans SC5314
Procedure: as §1

[3] = tested on: Cryptococcus deuterogattii; experiment: checkerboard drug interaction (FICI, MICc);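 as to all read-outs here: simplified diagonal checkerboard screen pairing antifungal drugs with FPPS inhibitors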; assay type: cell-based; settings: C. deuterogattii; for INH FD (MIC-MICc fold decrease): fold decrease of inhibitor MIC
Procedure: (§2) Drug interactions between antifungals and FPPS inhibitors were investigated using a simplified checkerboard diagonal screening method ([45]). […] FICIs were determined according to the Loewe additivity model ([17]).

Cryptococcus neoformans [4] = experiment: checkerboard drug interaction (FICI, MICc);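 as to all read-outs here: antifungal plus FPPS inhibitor pairs tested against Cryptococcus neoformans by simplified diagonal checkerboard screening, FICI computed under the Loewe additivity model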; assay type: cell-based; settings: C. neoformans; for INH FD (MIC-MICc fold decrease): fold decrease of inhibitor MIC
Procedure: as §2

Saccharomyces cerevisiae [5] = experiment: checkerboard drug interaction (FICI, MICc); assay type: cell-based; set-up: INH MICc / INH MICc (ITR:INH) / INH MICc (KET:INH) / INH MICc (FLC:INH): unit not given beside the values;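 also: simplified diagonal checkerboard screen pairing antifungals with FPPS inhibitors, FICI calculated under the Loewe additivity model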
Candida glabrata [6] = experiment: checkerboard drug interaction (FICI, MICc);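 as to all read-outs here: simplified diagonal checkerboard screen pairing antifungals with FPPS inhibitors, FICI calculated under the Loewe additivity model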; assay type: cell-based; settings: C. glabrata; for INH FD (MIC-MICc fold decrease): fold decrease of inhibitor MIC
Procedure: as §2

Candida albicans [7] = experiment: checkerboard drug interaction (FICI, MICc);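 as to all read-outs here: antifungal plus FPPS inhibitor combinations on Candida albicans tested by a simplified diagonal checkerboard screen, with FICI calculated under the Loewe additivity model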; assay type: cell-based; settings: C. albicans; for INH FD (MIC-MICc fold decrease): fold decrease of inhibitor MIC
Procedure: as §2

Aspergillus flavus [8] = experiment: checkerboard drug interaction (FICI, MICc);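 also: simplified diagonal checkerboard screen pairing azole antifungals with FPPS inhibitors, FICI calculated under the Loewe additivity model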; assay type: cell-based; set-up: INH MICc (KET:INH) / INH MICc (FLC:INH): unit not given beside the values; settings: A. flavus
Aspergillus fumigatus [9] = experiment: checkerboard drug interaction (FICI, MICc); assay type: cell-based;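 also: simplified diagonal checkerboard screen pairing antifungals with FPPS inhibitors against Aspergillus fumigatus, with FICI calculated under the Loewe additivity model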
Procedure: as §2

Trichophyton rubrum [10] = experiment: checkerboard drug interaction (FICI, MICc);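 also: simplified diagonal checkerboard screen pairing azole antifungals with FPPS inhibitors, FICI calculated under the Loewe additivity model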; assay type: cell-based; settings: T. rubrum
Procedure: as §2

HEK-293T cells = experiment: MTT reduction cytotoxicity assay; assay type: cell-based; settings: Homo sapiens, HEK-293T, 72 h, MTT, 72 h
eight fungal species [11] = experiment: MIC/MFC summary across the eight fungal species of Table 1; assay type: cell-based
Procedure: The antifungal activity of these compounds was evaluated according to CLSI guidelines ([16]).

eight fungal species [12] = experiment: checkerboard interaction with azoles, summary across the eight species; assay type: cell-based; settings: geometric mean MIC in combination with azoles
Excerpt: Synergy between lipophilic FPPS inhibitors and azole antifungals was investigated by determining the fractional inhibitory concentration index (FICI) (Fig. 2; Table S1 Fig. S1) ([17]). […]. Derivatives PLA9 and 11, and PDA9, 11, and 12 antagonized azoles in C. albicans, C. neoformans, and C. deuterogattii, yet were largely synergistic in C. glabrata and S. cerevisiae. […].

[13] = tested on: Cryptococcus deuterogattii; experiment: MIC/MFC broth microdilution (CLSI); settings: Cryptococcus deuterogattii;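 also: broth microdilution per CLSI M27-Ed4. MFC is the lowest concentration yielding no colonies when MIC broths are subcultured onto SDA plates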
Procedure: as §1

Cryptococcus neoformans [14] = experiment: MIC/MFC broth microdilution (CLSI); settings: Cryptococcus neoformans;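 also: susceptibility testing followed the CLSI M27-Ed4 broth microdilution document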
Procedure: as §1

Candida glabrata [15] = experiment: MIC/MFC broth microdilution (CLSI); settings: Nakaseomyces glabratus, CBS138;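 also: broth microdilution following CLSI M27-Ed4, MFC taken as the lowest drug level yielding no growth once MIC wells were subcultured on SDA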
Procedure: as §1

Aspergillus flavus [16] = experiment: MIC/MFC broth microdilution (CLSI); settings: ATCC204304
Procedure: as §1

Aspergillus fumigatus [17] = experiment: MIC/MFC broth microdilution (CLSI); settings: ATCC204305
Procedure: as §1

Trichophyton rubrum [18] = experiment: MIC/MFC broth microdilution (CLSI); settings: Trichophyton rubrum
Procedure: as §1

[19] = FLC:INH combination, MIC of the inhibitor in combination with FLC
[20] = FLC:INH combination, fold decrease of FLC MIC
[21] = ITR:INH combination, MIC of the inhibitor in combination with ITR
[22] = ITR:INH combination, fold decrease of ITR MIC
[23] = KET:INH combination, MIC of the inhibitor in combination with KET
[24] = KET:INH combination, fold decrease of KET MIC
[25] = Fractional Inhibitory Concentration Index, fluconazole + inhibitor
[26] = Fractional Inhibitory Concentration Index, itraconazole + inhibitor
[27] = Fractional Inhibitory Concentration Index, ketoconazole + inhibitor
[28] = MIC of the inhibitor in combination with fluconazole
[29] = MIC of the inhibitor in combination with itraconazole
[30] = MIC of the inhibitor in combination with ketoconazole
[31] = MIC-MICc fold decrease of fluconazole, negative = increase
[32] = MIC-MICc fold decrease of itraconazole, negative = increase
[33] = MIC-MICc fold decrease of ketoconazole, negative = increase
[34] = MIC-MICc fold decrease of the inhibitor, with fluconazole
[35] = MIC-MICc fold decrease of the inhibitor, with itraconazole
[36] = MIC-MICc fold decrease of the inhibitor, with ketoconazole

CCCCCCCCCCCCN1CCC[C@H]1C(=O)N[C@H](CC(=O)O)C(=O)O [PDA12]
MFC (Saccharomyces cerevisiae [1]): > 128 µg/mL | MIC (Saccharomyces cerevisiae [1]): > 128 µg/mL | MFC (Candida albicans [2]): > 128 µg/mL | MIC (Candida albicans [2]): > 128 µg/mL | FICI ([3]; FLC:INH combination): 2.5 | INH MICc [3, 19]: 128 | FLC FD (MIC-MICc fold decrease) [3, 20]: -2 | INH FD (MIC-MICc fold decrease) ([3]; FLC:INH combination): 2 | FICI ([3]; ITR:INH combination): ≥4 | INH MICc [3, 21]: 128 | ITR FD (MIC-MICc fold decrease) [3, 22]: -4 | INH FD (MIC-MICc fold decrease) ([3]; ITR:INH combination): 2 | FICI ([3]; KET:INH combination): 0.5 | INH MICc [3, 23]: 64 | KET FD (MIC-MICc fold decrease) [3, 24]: 4 | INH FD (MIC-MICc fold decrease) ([3]; KET:INH combination): 4 | FICI (Cryptococcus neoformans [4]; FLC:INH combination): ≥4 | INH MICc (Cryptococcus neoformans [4]; [19]): 128 | FLC FD (MIC-MICc fold decrease) (Cryptococcus neoformans [4]; [20]): -4 | INH FD (MIC-MICc fold decrease) (Cryptococcus neoformans [4]; FLC:INH combination): 2 | FICI (Cryptococcus neoformans [4]; ITR:INH combination): 2.25 | INH MICc (Cryptococcus neoformans [4]; [21]): 64 | ITR FD (MIC-MICc fold decrease) (Cryptococcus neoformans [4]; [22]): -2 | INH FD (MIC-MICc fold decrease) (Cryptococcus neoformans [4]; ITR:INH combination): 4 | FICI (Cryptococcus neoformans [4]; KET:INH combination): ≥4 | INH MICc (Cryptococcus neoformans [4]; [23]): 128 | KET FD (MIC-MICc fold decrease) (Cryptococcus neoformans [4]; [24]): -4 | INH FD (MIC-MICc fold decrease) (Cryptococcus neoformans [4]; KET:INH combination): 2 | FICI (FLC:INH) (Saccharomyces cerevisiae [5]; [25]): 0.38 | FICI (ITR:INH) (Saccharomyces cerevisiae [5]; [26]): 0.63 | FICI (KET:INH) (Saccharomyces cerevisiae [5]; [27]): 0.31 | INH MICc (FLC:INH) (Saccharomyces cerevisiae [5]; [28]): 64 | INH MICc (ITR:INH) (Saccharomyces cerevisiae [5]; [29]): 32 | INH MICc (KET:INH) (Saccharomyces cerevisiae [5]; [30]): 16 | FLC FD (FLC:INH) (Saccharomyces cerevisiae [5]; [31]): 8 | ITR FD (ITR:INH) (Saccharomyces cerevisiae [5]; [32]): 2 | KET FD (KET:INH) (Saccharomyces cerevisiae [5]; [33]): 4 | INH FD (FLC:INH) (Saccharomyces cerevisiae [5]; [34]): 4 | INH FD (ITR:INH) (Saccharomyces cerevisiae [5]; [35]): 8 | INH FD (KET:INH) (Saccharomyces cerevisiae [5]; [36]): 16 | FICI (Candida glabrata [6]; FLC:INH combination): 0.75 | INH MICc (Candida glabrata [6]; [19]): 8 | FLC FD (MIC-MICc fold decrease) (Candida glabrata [6]; [20]): 2 | INH FD (MIC-MICc fold decrease) (Candida glabrata [6]; FLC:INH combination): 32 | FICI (Candida glabrata [6]; ITR:INH combination): 0.31 | INH MICc (Candida glabrata [6]; [21]): 2 | ITR FD (MIC-MICc fold decrease) (Candida glabrata [6]; [22]): 4 | INH FD (MIC-MICc fold decrease) (Candida glabrata [6]; ITR:INH combination): 128 | FICI (Candida glabrata [6]; KET:INH combination): 0.31 | INH MICc (Candida glabrata [6]; [23]): 2 | KET FD (MIC-MICc fold decrease) (Candida glabrata [6]; [24]): 4 | INH FD (MIC-MICc fold decrease) (Candida glabrata [6]; KET:INH combination): 128 | FICI (Candida albicans [7]; FLC:INH combination): 2.06 | INH MICc (Candida albicans [7]; [19]): 16 | FLC FD (MIC-MICc fold decrease) (Candida albicans [7]; [20]): -2 | INH FD (MIC-MICc fold decrease) (Candida albicans [7]; FLC:INH combination): 16 | FICI (Candida albicans [7]; ITR:INH combination): ≥4 | INH MICc (Candida albicans [7]; [21]): 64 | ITR FD (MIC-MICc fold decrease) (Candida albicans [7]; [22]): < -4 | INH FD (MIC-MICc fold decrease) (Candida albicans [7]; ITR:INH combination): 4 | FICI (Candida albicans [7]; KET:INH combination): ≥4 | INH MICc (Candida albicans [7]; [23]): 32 | KET FD (MIC-MICc fold decrease) (Candida albicans [7]; [24]): -4 | INH FD (MIC-MICc fold decrease) (Candida albicans [7]; KET:INH combination): 8 | FICI (FLC:INH) (Aspergillus flavus [8]; [25]): 2 | FICI (ITR:INH) (Aspergillus flavus [8]; [26]): 1 | FICI (KET:INH) (Aspergillus flavus [8]; [27]): 1 | INH MICc (FLC:INH) (Aspergillus flavus [8]; [28]): 256 | INH MICc (ITR:INH) (Aspergillus flavus [8]; [29]): 128 | INH MICc (KET:INH) (Aspergillus flavus [8]; [30]): 128 | FLC FD (FLC:INH) (Aspergillus flavus [8]; [31]): 1 | ITR FD (ITR:INH) (Aspergillus flavus [8]; [32]): 2 | KET FD (KET:INH) (Aspergillus flavus [8]; [33]): 2 | INH FD (FLC:INH) (Aspergillus flavus [8]; [34]): 1 | INH FD (ITR:INH) (Aspergillus flavus [8]; [35]): 2 | INH FD (KET:INH) (Aspergillus flavus [8]; [36]): 2 | FICI (FLC:INH) (Aspergillus fumigatus [9]; [25]): 2 | FICI (ITR:INH) (Aspergillus fumigatus [9]; [26]): 0.51 | FICI (KET:INH) (Aspergillus fumigatus [9]; [27]): 1.5 | INH MICc (FLC:INH) (Aspergillus fumigatus [9]; [28]): 256 | INH MICc (ITR:INH) (Aspergillus fumigatus [9]; [29]): 2 | INH MICc (KET:INH) (Aspergillus fumigatus [9]; [30]): 128 | FLC FD (FLC:INH) (Aspergillus fumigatus [9]; [31]): 1 | ITR FD (ITR:INH) (Aspergillus fumigatus [9]; [32]): 2 | KET FD (KET:INH) (Aspergillus fumigatus [9]; [33]): 1 | INH FD (FLC:INH) (Aspergillus fumigatus [9]; [34]): 1 | INH FD (ITR:INH) (Aspergillus fumigatus [9]; [35]): 128 | INH FD (KET:INH) (Aspergillus fumigatus [9]; [36]): 2 | FICI (FLC:INH) (Trichophyton rubrum [10]; [25]): ≥4 | FICI (ITR:INH) (Trichophyton rubrum [10]; [26]): 3 | FICI (KET:INH) (Trichophyton rubrum [10]; [27]): ≥4 | INH MICc (FLC:INH) (Trichophyton rubrum [10]; [28]): 256 | INH MICc (ITR:INH) (Trichophyton rubrum [10]; [29]): 256 | INH MICc (KET:INH) (Trichophyton rubrum [10]; [30]): 256 | FLC FD (FLC:INH) (Trichophyton rubrum [10]; [31]): -2 | ITR FD (ITR:INH) (Trichophyton rubrum [10]; [32]): 1 | KET FD (KET:INH) (Trichophyton rubrum [10]; [33]): -2 | INH FD (FLC:INH) (Trichophyton rubrum [10]; [34]): -2 | INH FD (ITR:INH) (Trichophyton rubrum [10]; [35]): -2 | INH FD (KET:INH) (Trichophyton rubrum [10]; [36]): -2 | IC50 (HEK-293T cells; HEK-293T cells, read-out: IC50): 168 µg/mL (≈ 421 µM) | IC50 (HEK-293T cells; read-out: HEK IC50): 168 µg/mL (≈ 421 µM) | MFC (eight fungal species [11]; across eight species, read-out: Geometric mean MFC): > 128 µg/mL | MIC (eight fungal species [11]; geometric mean across eight species, read-out: GM fungal MIC): 235 µg/mL (≈ 589 µM) | MIC (eight fungal species [11]; read-out: Geometric mean MIC): 235 µg/mL (≈ 589 µM) | GM fungal MICc (eight fungal species [12]): 52.3 | MFC [13]: > 128 µg/mL | MIC [13]: > 128 µg/mL | MFC (Cryptococcus neoformans [14]): > 128 µg/mL | MIC (Cryptococcus neoformans [14]): > 128 µg/mL | MFC (Candida glabrata [15]): > 128 µg/mL | MIC (Candida glabrata [15]): > 128 µg/mL | MFC (Aspergillus flavus [16]): > 128 µg/mL | MIC (Aspergillus flavus [16]): > 128 µg/mL | MFC (Aspergillus fumigatus [17]): > 128 µg/mL | MIC (Aspergillus fumigatus [17]): > 128 µg/mL | MFC (Trichophyton rubrum [18]): > 128 µg/mL | MIC (Trichophyton rubrum [18]): 128 µg/mL (≈ 321 µM)

— PMC12892976, “Alkylation-based optimization of antifungal FPPS inhibitors yields a potent, broad-spectrum lipophilic zoledronate derivative” (mBio, 2025)
